Experimental findings from ChEMBL document CHEMBL1124319, “Synthesis of an analogue of tabtoxinine as a potential inhibitor of D-alanine:D-alanine ligase (ADP forming)” (J Med Chem, 1989) are described below.

Active and inactive are the calls of the source. The rule behind the calls is not given here.

One experiment relates to Escherichia coli. Description: Antibacterial activity against Escherichia coli; Inactive. The experiment is classed as functional, organism-based.
For the next experiment, the system named is Staphylococcus aureus. The experiment can be described thus: Antibacterial activity against Staphylococcus aureus; Inactive. The experiment is classed as functional, organism-based.
Experiment [1] in a line: Compound was tested for its inhibitory activity against DAla-DAla Ligase at 1 mM; No activity. Further details: species or system Enterococcus faecalis.
Experiment [2] in a line: Compound was tested for its inhibitory activity against DAla-DAla Ligase. Further details: species or system Enterococcus faecalis.

Take `C[C@@H](N)[C@@]1(O)CNC1=O`: the result in the experiment with Escherichia coli and with Staphylococcus aureus was inactive. The IC50 entry in experiment [1] is “Not Active”.
Regarding `C[C@@H](N)[C@]1(O)CNC1=O`, the outcome in the experiment with Escherichia coli and in the experiment on Staphylococcus aureus was inactive. Also, the IC50 entry in experiment [1] is on record as “Not Active”.
In the case of `N[C@@H]1CONC1=O` [CYCLOSERINE], the 50% inhibitory concentration (IC50) in experiment [2] amounted to 250 µM.
On to `CC(N)P(=O)(O)O` (stereo not drawn), for which, in experiment [2], the midpoint of inhibition, the IC50, lay at 930 µM.

What is called IC50 is the concentration that inhibits the measured activity by half.
